Several values for one entry are separate records, joined by “and”; a condition that tells them apart may be missing. Equal values may be shown once.
Columns and labels:
Test in all cases: radiometric filter-binding kinase assay, Kinase HotSpot
Details in all cases: compound 0.5 µM; ATP 10 µM
CSNK1G3 (human) = CSNK1G3 (human) (UniProt Q9Y6M4)
MAPK10 (human) = MAPK10 (human) (UniProt P53779)
MAPK8 (human) = MAPK8 (human) (UniProt P45983)
MST1R (human) = MST1R (human) (UniProt Q04912)
DYRK2 (human) = DYRK2 (human) (UniProt Q92630)
RPS6KA2 KD1 KD2 (human) = RPS6KA2 KD1 KD2 (human) (UniProt Q15349)
MAPK1 (human) = MAPK1 (human) (UniProt P28482)
FYN (human) = FYN (human) (UniProt P06241)
RAF1 (human) = RAF1 (human) (UniProt P04049)
CDK2 CCNE1 (human) = CDK2 CCNE1 (human) (UniProt P24941+P24864)
PRKCB2 (human) = PRKCB2 (human) (UniProt P05771)
MAPK14 (human) = MAPK14 (human) (UniProt Q16539)
Sequence of MAPK14 (human) (Q16539 whole entry, looked up): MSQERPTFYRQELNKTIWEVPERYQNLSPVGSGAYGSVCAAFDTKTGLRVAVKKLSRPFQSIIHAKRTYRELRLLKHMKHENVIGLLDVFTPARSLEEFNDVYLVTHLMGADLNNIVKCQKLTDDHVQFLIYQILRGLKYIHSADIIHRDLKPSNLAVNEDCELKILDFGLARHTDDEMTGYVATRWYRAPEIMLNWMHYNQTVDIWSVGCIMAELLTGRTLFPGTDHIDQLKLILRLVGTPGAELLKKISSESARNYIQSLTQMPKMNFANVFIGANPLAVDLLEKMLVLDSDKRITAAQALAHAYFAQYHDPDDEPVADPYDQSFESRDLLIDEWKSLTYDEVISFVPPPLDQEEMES

FLT1 (human) = FLT1 (human) (UniProt P17948)
CAMKK1 (human) = CAMKK1 (human) (UniProt Q8N5S9)
FGFR3 (human) = FGFR3 (human) (UniProt P22607)
MKNK2 (human) = MKNK2 (human) (UniProt Q9HBH9)
Sequence of MKNK2 (human) (Q9HBH9 whole entry, looked up): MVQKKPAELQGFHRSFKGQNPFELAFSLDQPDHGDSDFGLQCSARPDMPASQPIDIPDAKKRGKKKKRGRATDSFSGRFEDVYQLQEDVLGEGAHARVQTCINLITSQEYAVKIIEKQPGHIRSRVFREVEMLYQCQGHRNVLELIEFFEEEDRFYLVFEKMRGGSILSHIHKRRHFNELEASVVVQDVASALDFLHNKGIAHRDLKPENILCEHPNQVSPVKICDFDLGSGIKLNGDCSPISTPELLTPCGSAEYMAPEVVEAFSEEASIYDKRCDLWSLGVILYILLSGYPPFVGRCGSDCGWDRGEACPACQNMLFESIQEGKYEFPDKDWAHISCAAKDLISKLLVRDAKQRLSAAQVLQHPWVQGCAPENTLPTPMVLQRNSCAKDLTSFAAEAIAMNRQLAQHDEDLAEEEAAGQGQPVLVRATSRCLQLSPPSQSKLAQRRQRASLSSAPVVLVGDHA

CAMKK2 (human) = CAMKK2 (human) (UniProt Q96RR4)
JAK2 JH1 JH2 (human) = JAK2 JH1 JH2 (human) (UniProt O60674)
Sequence of JAK2 JH1 JH2 (human) (O60674 whole entry, looked up): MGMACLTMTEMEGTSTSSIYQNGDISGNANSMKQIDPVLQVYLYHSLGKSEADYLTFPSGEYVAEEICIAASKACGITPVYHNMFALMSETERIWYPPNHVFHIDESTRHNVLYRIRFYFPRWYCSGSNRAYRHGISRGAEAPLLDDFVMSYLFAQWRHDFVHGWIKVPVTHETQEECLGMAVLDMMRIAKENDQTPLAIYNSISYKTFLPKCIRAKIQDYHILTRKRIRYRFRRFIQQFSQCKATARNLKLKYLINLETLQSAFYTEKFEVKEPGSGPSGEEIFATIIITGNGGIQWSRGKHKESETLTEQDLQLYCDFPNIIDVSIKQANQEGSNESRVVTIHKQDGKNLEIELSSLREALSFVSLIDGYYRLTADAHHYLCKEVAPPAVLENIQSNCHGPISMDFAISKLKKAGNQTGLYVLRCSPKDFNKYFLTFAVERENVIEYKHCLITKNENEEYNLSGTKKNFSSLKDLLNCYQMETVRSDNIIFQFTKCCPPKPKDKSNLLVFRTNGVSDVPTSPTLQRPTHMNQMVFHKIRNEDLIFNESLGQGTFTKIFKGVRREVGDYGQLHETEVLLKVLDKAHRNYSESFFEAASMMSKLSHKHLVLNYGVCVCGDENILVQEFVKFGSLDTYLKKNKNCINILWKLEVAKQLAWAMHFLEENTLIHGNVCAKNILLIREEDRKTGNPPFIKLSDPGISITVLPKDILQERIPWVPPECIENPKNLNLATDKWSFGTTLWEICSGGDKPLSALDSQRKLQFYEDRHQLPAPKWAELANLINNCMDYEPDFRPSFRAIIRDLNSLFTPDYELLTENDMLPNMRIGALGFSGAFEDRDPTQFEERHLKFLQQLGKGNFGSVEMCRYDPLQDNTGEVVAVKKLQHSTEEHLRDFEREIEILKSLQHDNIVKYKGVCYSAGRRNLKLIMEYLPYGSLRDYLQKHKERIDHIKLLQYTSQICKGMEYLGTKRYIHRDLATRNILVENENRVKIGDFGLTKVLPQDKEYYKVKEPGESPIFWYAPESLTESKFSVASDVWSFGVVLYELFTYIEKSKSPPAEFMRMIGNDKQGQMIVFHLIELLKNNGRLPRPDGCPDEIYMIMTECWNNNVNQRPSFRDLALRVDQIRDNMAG

PIM3 (human) = PIM3 (human) (UniProt Q86V86)
NEK4 (human) = NEK4 (human) (UniProt P51957)
TTK (human) = TTK (human) (UniProt P33981)
LYN (human) = LYN (human) (UniProt P07948)
Sequence of LYN (human) (P07948 whole entry, looked up): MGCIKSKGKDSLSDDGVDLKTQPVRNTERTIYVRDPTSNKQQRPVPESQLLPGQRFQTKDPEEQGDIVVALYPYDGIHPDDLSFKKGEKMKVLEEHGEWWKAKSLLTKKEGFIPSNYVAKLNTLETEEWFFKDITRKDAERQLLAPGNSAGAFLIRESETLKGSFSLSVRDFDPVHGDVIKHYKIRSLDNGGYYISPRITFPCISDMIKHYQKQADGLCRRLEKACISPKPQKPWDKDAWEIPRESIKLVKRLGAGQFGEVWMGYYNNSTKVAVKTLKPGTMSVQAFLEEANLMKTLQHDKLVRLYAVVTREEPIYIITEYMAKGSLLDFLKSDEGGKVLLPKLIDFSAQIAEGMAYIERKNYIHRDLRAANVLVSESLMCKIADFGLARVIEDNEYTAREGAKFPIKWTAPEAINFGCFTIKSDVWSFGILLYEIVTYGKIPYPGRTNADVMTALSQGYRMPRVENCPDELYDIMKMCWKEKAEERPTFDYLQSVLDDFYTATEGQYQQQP

STK33 (human) = STK33 (human) (UniProt Q9BYT3)
Sequence of STK33 (human) (Q9BYT3 whole entry, looked up): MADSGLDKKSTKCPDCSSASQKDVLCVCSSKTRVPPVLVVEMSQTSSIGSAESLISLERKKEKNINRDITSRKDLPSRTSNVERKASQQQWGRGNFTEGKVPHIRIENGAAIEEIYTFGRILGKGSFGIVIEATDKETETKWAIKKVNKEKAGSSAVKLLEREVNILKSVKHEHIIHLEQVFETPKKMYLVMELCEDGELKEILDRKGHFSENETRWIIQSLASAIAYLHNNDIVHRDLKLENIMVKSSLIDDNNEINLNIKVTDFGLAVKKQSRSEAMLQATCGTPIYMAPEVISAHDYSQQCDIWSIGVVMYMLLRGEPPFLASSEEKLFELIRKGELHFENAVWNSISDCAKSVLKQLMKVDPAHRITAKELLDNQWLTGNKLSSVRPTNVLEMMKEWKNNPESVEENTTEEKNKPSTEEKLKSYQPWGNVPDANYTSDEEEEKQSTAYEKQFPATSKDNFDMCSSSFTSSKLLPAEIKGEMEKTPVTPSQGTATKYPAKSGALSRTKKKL

[1] = biological target: TYK2 JH1 catalytic (human) (UniProt P29597)
CAMK2A (human) = CAMK2A (human) (UniProt Q9UQM7)
[2] = system: PRKCQ (human), Q04759 [P330L]
NTRK2 (human) = NTRK2 (human) (UniProt Q16620)
PKN1 (human) = PKN1 (human) (UniProt Q16512)
CSNK1A1 (human) = CSNK1A1 (human) (UniProt P48729)
PRKCG (human) = PRKCG (human) (UniProt P05129)
CDK7 CCNH MNAT1 (human) = CDK7 CCNH MNAT1 (human) (UniProt P50613+P51948+P51946)
PAK1 (human) = PAK1 (human) (UniProt Q13153)
DAPK3 (human) = DAPK3 (human) (UniProt O43293)
PRKCA (human) = PRKCA (human) (UniProt P17252)
EPHB4 (human) = EPHB4 (human) (UniProt P54760)
Sequence of EPHB4 (human) (P54760 whole entry, looked up): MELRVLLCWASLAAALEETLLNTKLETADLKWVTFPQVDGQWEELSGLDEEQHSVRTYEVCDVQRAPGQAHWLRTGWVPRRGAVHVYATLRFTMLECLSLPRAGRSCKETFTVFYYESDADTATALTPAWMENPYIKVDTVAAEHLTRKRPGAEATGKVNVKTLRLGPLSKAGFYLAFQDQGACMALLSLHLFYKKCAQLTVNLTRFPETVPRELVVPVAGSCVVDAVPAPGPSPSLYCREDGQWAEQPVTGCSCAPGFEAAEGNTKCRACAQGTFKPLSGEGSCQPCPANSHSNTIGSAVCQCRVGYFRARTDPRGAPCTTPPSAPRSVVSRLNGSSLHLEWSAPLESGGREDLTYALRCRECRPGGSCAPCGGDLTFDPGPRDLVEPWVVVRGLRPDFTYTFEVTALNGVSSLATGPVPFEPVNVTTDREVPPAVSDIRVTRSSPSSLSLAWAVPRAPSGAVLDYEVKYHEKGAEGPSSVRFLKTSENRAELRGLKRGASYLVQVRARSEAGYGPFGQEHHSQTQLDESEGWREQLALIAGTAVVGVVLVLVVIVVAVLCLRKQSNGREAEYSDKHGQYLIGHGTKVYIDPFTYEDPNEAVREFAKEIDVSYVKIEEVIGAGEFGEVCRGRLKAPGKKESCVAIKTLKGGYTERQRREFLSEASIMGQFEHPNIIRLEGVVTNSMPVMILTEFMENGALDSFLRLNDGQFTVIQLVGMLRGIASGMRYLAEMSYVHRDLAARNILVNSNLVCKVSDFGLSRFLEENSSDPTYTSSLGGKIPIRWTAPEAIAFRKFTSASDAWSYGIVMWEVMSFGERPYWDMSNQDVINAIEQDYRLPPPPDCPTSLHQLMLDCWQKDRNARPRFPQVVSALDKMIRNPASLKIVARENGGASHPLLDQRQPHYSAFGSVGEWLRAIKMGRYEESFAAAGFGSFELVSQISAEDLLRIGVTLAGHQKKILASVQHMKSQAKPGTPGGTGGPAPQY

FGFR2 (human) = FGFR2 (human) (UniProt P21802)
CDK5 CDK5R1 p35 (human) = CDK5 CDK5R1 p35 (human) (UniProt Q00535+Q15078)
DYRK1A (human) = DYRK1A (human) (UniProt Q13627)
AKT1 (human) = AKT1 (human) (UniProt P31749)
FER (human) = FER (human) (UniProt P16591)
CAMK1D (human) = CAMK1D (human) (UniProt Q8IU85)
Sequence of CAMK1D (human) (Q8IU85 whole entry, looked up): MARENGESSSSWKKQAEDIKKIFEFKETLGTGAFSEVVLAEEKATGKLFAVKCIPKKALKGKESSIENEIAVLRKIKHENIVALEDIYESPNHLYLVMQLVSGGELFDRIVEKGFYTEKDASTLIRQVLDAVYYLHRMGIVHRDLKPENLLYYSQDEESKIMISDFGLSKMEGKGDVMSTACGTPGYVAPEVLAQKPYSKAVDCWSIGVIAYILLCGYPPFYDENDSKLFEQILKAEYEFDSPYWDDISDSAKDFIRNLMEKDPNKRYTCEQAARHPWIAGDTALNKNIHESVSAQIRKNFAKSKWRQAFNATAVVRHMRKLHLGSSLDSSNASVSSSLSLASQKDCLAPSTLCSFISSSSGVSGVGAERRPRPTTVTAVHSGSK

Structure (SMILES): Ic1cccc(CSc2nnc(-c3ccncc3)o2)c1
- residual activity (CSNK1G3 (human)): 75.9%
- residual activity (MAPK10 (human)): 95.7%
- residual activity (MAPK8 (human)): 84.7%
- residual activity (MST1R (human)): 104%
- residual activity (DYRK2 (human)): 96.8%
- residual activity (RPS6KA2 KD1 KD2 (human)): 101%
- residual activity (MAPK1 (human)): 107%
- residual activity (FYN (human)): 102%
- residual activity (RAF1 (human)): 92.8%
- residual activity (CDK2 CCNE1 (human)): 102%
- residual activity (PRKCB2 (human)): 91.2%
- residual activity (MAPK14 (human)): 99.3%
- residual activity (FLT1 (human)): 91%
- residual activity (CAMKK1 (human)): 124%
- residual activity (FGFR3 (human)): 106%
- residual activity (MKNK2 (human)): 91.5%
- residual activity (CAMKK2 (human)): 85.1%
- residual activity (JAK2 JH1 JH2 (human)): 107%
- residual activity (PIM3 (human)): 106%
- residual activity (NEK4 (human)): 93.7%
- residual activity (TTK (human)): 103%
- residual activity (LYN (human)): 103% and 99.6%
- residual activity (STK33 (human)): 111%
- residual activity [1]: 105%
- residual activity (CAMK2A (human)): 92.3%
- residual activity [2]: 120%
- residual activity (NTRK2 (human)): 91.4%
- residual activity (PKN1 (human)): 98.6%
- residual activity (CSNK1A1 (human)): 97%
- residual activity (PRKCG (human)): 98.7%
- residual activity (CDK7 CCNH MNAT1 (human)): 96.7%
- residual activity (PAK1 (human)): 94.8%
- residual activity (DAPK3 (human)): 107%
- residual activity (PRKCA (human)): 123%
- residual activity (EPHB4 (human)): 101%
- residual activity (FGFR2 (human)): 101%
- residual activity (CDK5 CDK5R1 p35 (human)): 102%
- residual activity (DYRK1A (human)): 96.4%
- residual activity (AKT1 (human)): 98.6%
- residual activity (FER (human)): 101%
- residual activity (CAMK1D (human)): 101%

From the kinase profiling compilation of Christmann-Franck et al. (2016)
